# In ChEMBL document CHEMBL4130462, “Natural isoflavone biochanin A as a template for the design of new and potent 3-phenylquinolone efflux inhibitors against Mycobacterium avium” (Eur J Med Chem, 2017):
# Key:
# Mycobacterium avium [1] = conditions: in vivo, 72 h
# Description: Antimycobacterial activity against Mycobacterium avium 104 mc'2 3 assessed as reduction in bacterial viability incubated for 3 days by MTT assay
# Mycobacterium avium [2] = test: Antimycobacterial activity against Mycobacterium avium ATCC 25291 assessed as reduction in bacterial viability incubated for 3 days by MTT assay; assay type: organism-based; conditions: mycobacterium avium subsp. avium atcc 25291, 72 h
# Mycobacterium avium [3] = test: Antimycobacterial activity against Mycobacterium avium isolate MAV1 assessed as reduction in bacterial viability incubated for 3 days by MTT assay; assay type: organism-based; conditions: in vitro, 72 h
# Mycobacterium avium [4] = test: Antimycobacterial activity against Mycobacterium avium isolate MAV4 assessed as reduction in bacterial viability incubated for 3 days by MTT assay; assay type: organism-based; conditions: 72 h
# Mycobacterium avium [5] = conditions: 72 h
# Description: Antimycobacterial activity against Mycobacterium avium 104 assessed as reduction in bacterial viability incubated for 3 days by MTT assay
# Mycobacterium avium [6] = test: Antimycobacterial activity against Mycobacterium avium isolate MAV3 assessed as reduction in bacterial viability incubated for 3 days by MTT assay; assay type: organism-based; conditions: 72 h
# Mycobacterium avium [7] = test: Antimycobacterial activity against Mycobacterium avium isolate MAV2 assessed as reduction in bacterial viability incubated for 3 days by MTT assay; assay type: organism-based; conditions: 72 h
# Mycobacterium avium [8] = conditions: in vivo, 72 h; remark: listed apart in the source
# Description: Antimycobacterial activity against Mycobacterium avium 104 mc'2 4 assessed as reduction in bacterial viability incubated for 3 days by MTT assay
# [9] = test system: Mycolicibacterium smegmatis MC2 155; test: Inhibition of multidrug resistance efflux pump in Mycobacterium smegmatis str. MC2 155 assessed as increase in EtBr accumulation by measuring relative final fluorescence at <= 1/2 times MIC incubated for 60 mins by real-time fluorometry relative to control
# [10] = test system: Mycolicibacterium smegmatis; test: Antimycobacterial activity against Mycobacterium smegmatis str. MC2 155 assessed as reduction in bacterial viability incubated for 3 days by MTT assay; assay type: organism-based; conditions: 72 h
# [11] = Cytotoxicity in human monocyte-derived macrophages assessed as reduction in cell viability incubated for 3 days by alamar blue dye based assay; design: species or system Macrophage cell line; conditions: for CC50 at 72 h: human monocyte-derived macrophages; for MTC: macrophage cell line, 72 h
# Mycobacterium avium [12] = test: Inhibition of multidrug resistance efflux pump in Mycobacterium avium 104 assessed as increase in EtBr accumulation by measuring relative final fluorescence at 1/4 times MIC incubated for 60 mins by real-time fluorometry relative to control
# Mycobacterium avium [13] = test: Inhibition of multidrug resistance efflux pump in Mycobacterium avium 104 mc'2 4 assessed as increase in EtBr accumulation by measuring relative final fluorescence at 1/4 times MIC incubated for 60 mins by real-time fluorometry relative to control
# Mycobacterium avium [14] = test: Inhibition of multidrug resistance efflux pump in Mycobacterium avium 104 mc'2 3 assessed as increase in EtBr accumulation by measuring relative final fluorescence at 1/4 times MIC incubated for 60 mins by real-time fluorometry relative to control
Compound,MIC (Mycobacterium avium [1]),MIC (Mycobacterium avium [2]) [µg/mL],MIC (Mycobacterium avium [3]) [µg/mL],MIC (Mycobacterium avium [4]) [µg/mL],MIC (Mycobacterium avium [5]),MIC (Mycobacterium avium [6]) [µg/mL],MIC (Mycobacterium avium [7]) [µg/mL],MIC (Mycobacterium avium [8]),Ratio [9],MIC [10],CC50 at 72 h [11] [µM],MTC [11] [µM],Ratio (Mycobacterium avium [12]),Ratio (Mycobacterium avium [13]),Ratio (Mycobacterium avium [14])
O=C(O)c1cn(C2CC2)c2cc(N3CCNCC3)c(F)cc2c1=O [CIPROFLOXACIN],16 µg/mL,32,2,32,16 µg/mL,32,8,16 µg/mL,–,–,–,–,–,–,–
CC[C@H]1OC(=O)[C@H](C)[C@@H](O[C@H]2C[C@@](C)(OC)[C@@H](O)[C@H](C)O2)[C@H](C)[C@@H](O[C@@H]2O[C@H](C)C[C@H](N(C)C)[C@H]2O)[C@](C)(O)C[C@@H](C)C(=O)[C@H](C)[C@@H](O)[C@]1(C)O [ERYTHROMYCIN],> 512 µg/mL,–,–,512,–,512,> 512,> 512 µg/mL,–,–,–,–,–,–,–
CCCOc1ccc(-c2cn(CCN3CCNCC3)c3ccccc3c2=O)cc1,> 256 µg/mL,–,–,–,> 256 µg/mL,–,–,> 256 µg/mL,1.42,> 256 µg/mL,–,–,–,–,–
CCCOc1ccc(-c2cn(CCCN(C)C)c3ccccc3c2=O)cc1,> 256 µg/mL,–,–,–,> 256 µg/mL,–,–,> 256 µg/mL,1.38,> 256 µg/mL,–,–,–,–,–
CCCOc1ccc(-c2c[nH]c3ccccc3c2=O)cc1,Nd(Insoluble),–,–,–,Nd(Insoluble),–,–,Nd(Insoluble),–,Nd(Insoluble),–,–,–,–,–
COc1ccc(-c2coc3cc(O)cc(O)c3c2=O)cc1 [BIOCHANIN],> 64 µg/mL,–,–,–,> 64 µg/mL,–,–,> 64 µg/mL,0.63,> 64 µg/mL,50.4,20,–,–,–
CC[C@H]1OC(=O)[C@H](C)[C@@H](O[C@H]2C[C@@](C)(OC)[C@@H](O)[C@H](C)O2)[C@H](C)[C@@H](O[C@@H]2O[C@H](C)C[C@H](N(C)C)[C@H]2O)[C@](C)(OC)C[C@@H](C)C(=O)[C@H](C)[C@@H](O)[C@]1(C)O [CLARITHROMYCIN],> 512 µg/mL,8,4,8,8 µg/mL,16,> 1024,> 512 µg/mL,–,–,–,–,–,–,–
CC1COc2c(N3CCN(C)CC3)c(F)cc3c(=O)c(C(=O)O)cn1c23 (stereo not given) [OFLOXACIN],16 µg/mL,64,4,16,16 µg/mL,16,4,16 µg/mL,–,–,–,–,–,–,–
CC[n+]1c(-c2ccccc2)c2cc(N)ccc2c2ccc(N)cc21.[Br-] [HOMIDIUM BROMIDE],25 µg/mL,50,25,50,25 µg/mL,12.5,12.5,25 µg/mL,–,–,–,–,–,–,–
COc1ccc(CCN(C)CCCC(C#N)(c2ccc(OC)c(OC)c2)C(C)C)cc1OC (stereo not given),800 µg/mL,800,400,800,800 µg/mL,800,400,800 µg/mL,–,800 µg/mL,117,10,–,–,–
CCCOc1ccc(-c2cn(C)c3ccccc3c2=O)cc1,–,–,–,–,–,–,–,–,–,256 µg/mL,–,–,–,–,–
CCCOc1ccc(-c2cn(CCN3CCN(Cc4ccccc4)CC3)c3ccccc3c2=O)cc1,256 µg/mL,–,–,–,256 µg/mL,–,–,256 µg/mL,–,64 µg/mL,–,–,3.19,1.96,2.93
CC[C@H]1OC(=O)[C@H](C)[C@@H](O[C@H]2C[C@@](C)(OC)[C@@H](O)[C@H](C)O2)[C@H](C)[C@@H](O[C@@H]2O[C@H](C)C[C@H](N(C)C)[C@H]2O)[C@](C)(O)C[C@@H](C)CN(C)[C@H](C)[C@@H](O)[C@]1(C)O [AZITHROMYCIN],> 512 µg/mL,64,256,256,> 512 µg/mL,256,> 512,> 512 µg/mL,–,–,–,–,–,–,–
